SMILES strings stand for the structures. Where only a bound is given, the exact number is not on record here.

As a reminder, the IC50 is the point on the concentration scale where inhibition reaches its midpoint. A high value points to weaker potency in that assay.

Test [1] concerns the target T1, mu opioid receptor (MOR) (Homo sapiens, UniProt P35372).
T1 construct: host or cells: U2OS (Discover X OPRMu1-U2OS, PathHunter)
As to the kind of experiment: OPRMu1 Discover X β-arrestin Assay, antagonist mode (U2OS cells, DAMGO EC80 challenge). It counts as cell-based. Summed up:
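PathHunter U2OS cells with β-gal fragment-complementation readout for β-arrestin recruitment to OPRMu1. Cells were preincubated with compound (10-point, 1:3 series from nominal 10 micromolar) for 30 min at 37 °C, then challenged with 303 nM DAMGO (EC80) for 3 h. Luminescence gave percent inhibition.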

Test [2] concerns the target T2, kappa opioid receptor (KOR) (Homo sapiens, UniProt P41145).
T2 construct: host or cells: U2OS (Tango OPRK1-bla U2OS)
As to the kind of experiment: OPRKappa 1 Tango B-Arrestin Assay, antagonist mode (Tango OPRK1-bla U2OS cells, U50488 EC80 challenge). It counts as cell-based. The note with it: for Selectivity (MOR/KOR): Kappa selectivity, MOR IC50 / KOR IC50; for IC50: antagonist mode, Tango OPRK1-bla U2OS cells, 6 nM U50488 challenge. Summed up:
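Tango OPRK1-bla U2OS cells, β-arrestin recruitment read as β-lactamase FRET (CCF4-AM, 460/590 nm emission). Compounds, 10-point 1:3 series from nominal 10 µM in quadruplicate, preincubated 30 min at 37 °C, then challenged with U50488 at 6 nM final (EC80) for 4 h; percent inhibition from median ratio.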

T2 sequence (P41145 whole entry): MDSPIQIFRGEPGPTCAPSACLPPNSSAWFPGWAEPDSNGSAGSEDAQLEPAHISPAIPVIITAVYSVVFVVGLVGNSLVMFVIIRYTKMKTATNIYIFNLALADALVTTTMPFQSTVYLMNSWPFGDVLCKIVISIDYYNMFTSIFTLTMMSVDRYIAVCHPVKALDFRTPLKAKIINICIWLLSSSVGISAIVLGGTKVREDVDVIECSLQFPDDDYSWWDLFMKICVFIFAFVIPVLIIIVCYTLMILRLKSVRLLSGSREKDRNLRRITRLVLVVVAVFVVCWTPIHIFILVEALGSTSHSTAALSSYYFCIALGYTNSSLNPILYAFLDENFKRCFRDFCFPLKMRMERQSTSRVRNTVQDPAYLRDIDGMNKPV
T1 sequence (P35372 whole entry): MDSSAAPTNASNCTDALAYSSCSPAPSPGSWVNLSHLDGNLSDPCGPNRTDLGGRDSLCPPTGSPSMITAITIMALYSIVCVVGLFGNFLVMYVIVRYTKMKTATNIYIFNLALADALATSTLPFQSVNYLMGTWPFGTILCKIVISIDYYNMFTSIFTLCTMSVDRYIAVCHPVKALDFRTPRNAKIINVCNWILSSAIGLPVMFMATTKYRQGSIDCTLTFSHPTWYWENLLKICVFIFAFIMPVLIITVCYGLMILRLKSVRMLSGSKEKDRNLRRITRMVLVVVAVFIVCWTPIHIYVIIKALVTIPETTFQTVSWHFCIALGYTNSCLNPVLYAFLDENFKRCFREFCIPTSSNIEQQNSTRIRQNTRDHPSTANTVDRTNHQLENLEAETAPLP

In the case of `CCc1cc(F)c2nc(N3CCN(C(=O)[C@@H]4CCCN4C)C[C@H]3C)c(-c3cc(C)no3)c(C)c2c1` [Compound 165], the IC50 in test [1] was over 1000 nM. In test [2], the “Selectivity (MOR/KOR)” value was “+++ (between 100- to 1000-fold selective)” and the IC50 was in the range of 10 to 100 nM.

`CCc1cc(-c2ccnn2C)c2nc(N3CCN(CC4CCOCC4)C[C@H]3C)c(-c3ccn(C)n3)c(C)c2c1` [Compound 62] gave an IC50 in test [1] of 100 to 1000 nM. In test [2], the “Selectivity (MOR/KOR)” value is reported as “+++ (between 100- to 1000-fold selective)” and the IC50 lay in the range of 1 to 10 nM.

For `CCc1cc(F)c2nc(N3CCN(C(=O)[C@H]4CC(F)(F)CCN4)C[C@H]3C)c(-c3nc(C)no3)c(C)c2c1` [Compound 200], the IC50 in test [1] is over 1000 nM. Moreover, in test [2], the “Selectivity (MOR/KOR)” value was “+++ (between 100- to 1000-fold selective)” and the concentration for half-maximal inhibition (IC50) was in the range of 1 to 10 nM.

With `CCc1cc(F)c2nc(N3CCN(/C(=N/C#N)NC4CC(F)(F)C4)C[C@H]3C)c(-c3nc(C)no3)c(C)c2c1` [Compound 54], the IC50 in test [1] lay within 10 to 100 nM. In test [2], the “Selectivity (MOR/KOR)” value is recorded as “+++ (between 100- to 1000-fold selective)” and the half-maximal inhibitory concentration (IC50) was under 1 nM.

In the case of `CCc1cc(-c2ccnn2C)c2nc(N3CCC(N4CCOC[C@@H]4C)CC3)c(-c3ccn(C)n3)c(C)c2c1` [Compound 92], the IC50 in test [1] and in test [2] was over 1000 nM in each case.

As for `CCc1cc(-c2ccnn2C)c2nc(N3CCC(N[C@H]4CCOC[C@H]4F)CC3)c(-c3ccn(C)n3)c(C)c2c1` [Compound 21, 1-(6-ethyl-4-methyl-3-(1-methyl-1H-pyrazol-3-yl)-8-(1-methyl-1H-pyrazol-5-yl)quinolin-2-yl)-N-((3S,4S)-3-fluorotetrahydro-2H-pyran-4-yl)piperidin-4-amine], the IC50 in test [1] was in the range of 10 to 100 nM. In test [2], the “Selectivity (MOR/KOR)” value was “++ (between 10- and 100-fold selectivity)”; the half-inhibitory concentration (IC50) is 1 to 10 nM.

As for `CCc1cc(-c2ccnn2C)c2nc(N3CCN(C[C@@H]4CCOC4)C[C@H]3C)c(-c3ccn(C)n3)c(C)c2c1` [Compound 97], the results for the IC50 in test [1] and in test [2] were over 1000 nM and 1 to 10 nM, respectively. In addition, the “Selectivity (MOR/KOR)” value in test [2] is given as “+++ (between 100- to 1000-fold selective)”.

Regarding `CCc1cc(F)c2nc(N3CCN(C(=O)[C@H](C)N4CC[C@@H](F)C4)C[C@H]3C)c(-c3nc(C)no3)c(C)c2c1` (stereo in doubt) [Compound 151], the IC50 in test [1] is over 1000 nM. Further, in test [2], the “Selectivity (MOR/KOR)” value is “+++ (between 100- to 1000-fold selective)” and the IC50 was 1 to 10 nM.

The compound `CCc1cc(-c2ccnn2C)c2nc(N3CCC(N[C@@H]4COC[C@@H]4F)CC3)c(-c3ccn(C)n3)c(C)c2c1` [Compound 88] showed an IC50 in test [1] of 100 to 1000 nM. In addition, in test [2], the “Selectivity (MOR/KOR)” value is “++ (between 10- and 100-fold selectivity)”; the half-inhibitory concentration (IC50) lay within 1 to 10 nM.

As for `CCc1cc(F)c2nc(N3CCN(C(=O)C(C)(C)N4CCCC4)C[C@H]3C)c(-c3nc(C)no3)c(C)c2c1` [Compound 153], the half-maximal inhibitory concentration (IC50) in test [1] was over 1000 nM; in test [2], 1 to 10 nM. The “Selectivity (MOR/KOR)” value in test [2] is “+++ (between 100- to 1000-fold selective)”.

`CCc1cc(-c2cnn(CCO)c2)c2nc(N3CCNC[C@H]3C)c(-c3nc(C)no3)c(C)c2c1` [Compound 106]: in test [1], the IC50 was over 1000 nM. In test [2], the “Selectivity (MOR/KOR)” value is “++ (between 10- and 100-fold selectivity)”; the concentration for half-maximal inhibition (IC50) was at least 100 nM.

As for `CCc1cc(-c2ccnn2C)c2nc(N3CCN(CC4CC(F)(F)C4)C[C@H]3C)c(-c3ccn(C)n3)c(C)c2c1` [Compound 61], the IC50 is over 1000 nM in test [1] and at least 100 nM in test [2]. In test [2], the “Selectivity (MOR/KOR)” value was “++ (between 10- and 100-fold selectivity)”.

For the compound `CCc1cc(F)c2nc(N3CCN(C[C@@H]4CCOC4)C[C@H]3C)c(-c3ccn(C)n3)c(C)c2c1` [Compound 57], in test [1], the IC50 was over 1000 nM. Further, in test [2], the “Selectivity (MOR/KOR)” value was “++ (between 10- and 100-fold selectivity)”; the IC50 was at least 100 nM.

In the case of `CCc1cc(F)c2nc(N3CC[C@@H](N[C@@H]4CCOC4)C[C@H]3C)c(-c3cc(C)no3)c(C)c2c1` [Compound 137], in test [1], the IC50 fell in the range of 100 to 1000 nM. In addition, in test [2], the “Selectivity (MOR/KOR)” value is on record as “++++ (more than 1000-fold selectivity over MOR)” and the IC50 is under 1 nM.

With `CCc1cc(F)c2nc(N3CC[C@H](N[C@@H]4CCCOC4)C[C@@H]3C)c(-c3ccn(C)n3)c(C)c2c1` [Compound 121], the values for the concentration for half-maximal inhibition (IC50) in test [1] and in test [2] were over 1000 nM and 10 to 100 nM, respectively. Moreover, the “Selectivity (MOR/KOR)” value in test [2] is “+++ (between 100- to 1000-fold selective)”.

The compound `CCc1cc(F)c2nc(N3CCN(C(=O)[C@H](CO)N(C)C)C[C@H]3C)c(-c3ccn(C)n3)c(C)c2c1` [Compound 178] gave an IC50 in test [1] of over 1000 nM. In addition, in test [2], the “Selectivity (MOR/KOR)” value is recorded as “+++ (between 100- to 1000-fold selective)” and the IC50 is 10 to 100 nM.

With `CCc1cc(-c2ccnn2C)c2nc(N3CCC(N[C@@H]4CCOC[C@H]4F)CC3)c(-c3ccn(C)n3)c(C)c2c1` [Compound 22, 1-(6-ethyl-4-methyl-3-(1-methyl-1H-pyrazol-3-yl)-8-(1-methyl-1H-pyrazol-5-yl)quinolin-2-yl)-N-((3S,4R)-3-fluorotetrahydro-2H-pyran-4-yl)piperidin-4-amine], the half-maximal inhibitory concentration (IC50) in test [1] lay in the range of 100 to 1000 nM. Besides, in test [2], the “Selectivity (MOR/KOR)” value was “++ (between 10- and 100-fold selectivity)”; the half-inhibitory concentration (IC50) is 1 to 10 nM.

Regarding `CCc1cc(F)c2nc(N3CC[C@H](N[C@@H]4CCCOC4)[C@@H](C)C3)c(-c3ccn(C)n3)c(C)c2c1` [Compound 112], the half-inhibitory concentration (IC50) in test [1] is over 1000 nM. Also, in test [2], the “Selectivity (MOR/KOR)” value is listed as “+++ (between 100- to 1000-fold selective)” and the IC50 is 1 to 10 nM.

In test [1], `CCc1cc(-c2ccnn2C)c2nc(N3CCC(N[C@H]4CCOC[C@@H]4F)CC3)c(-c3ccn(C)n3)c(C)c2c1` [Compound 9, 1-(6-ethyl-4-methyl-3-(1-methyl-1H-pyrazol-3-yl)-8-(1-methyl-1H-pyrazol-5-yl)quinolin-2-yl)-N-((3R,4S)-3-fluorotetrahydro-2H-pyran-4-yl)piperidin-4-amine] registered an IC50 of 100 to 1000 nM. Also, in test [2], the “Selectivity (MOR/KOR)” value was “+++ (between 100- to 1000-fold selective)” and the IC50 is under 1 nM.

As for `CCc1cc(C#N)c2nc(N3CCC(NCC4(F)CCOCC4)CC3)c(-c3ccn(C)n3)c(C)c2c1` [Compound 80], the IC50 in test [1] was 100 to 1000 nM; in test [2], 1 to 10 nM. Also, the “Selectivity (MOR/KOR)” value in test [2] is “++ (between 10- and 100-fold selectivity)”.

In test [1], `CCc1cc(F)c2nc(N3CCN(C(=O)[C@@H](C)N(CC)CC)C[C@H]3C)c(-c3nc(C)no3)c(C)c2c1` [Compound 155] came in with an IC50 of over 1000 nM. In addition, in test [2], the “Selectivity (MOR/KOR)” value is given as “+++ (between 100- to 1000-fold selective)” and the IC50 fell in the range of 1 to 10 nM.

`CCc1cc(F)c2nc(N3CCN(C(=O)[C@H](C)N(CC)CC)C[C@H]3C)c(-c3cc(C)no3)c(C)c2c1` [Compound 164] yielded a concentration for half-maximal inhibition (IC50) in test [1] of over 1000 nM. For the same compound, in test [2], the “Selectivity (MOR/KOR)” value is listed as “+++ (between 100- to 1000-fold selective)” and the half-inhibitory concentration (IC50) lay within 10 to 100 nM.

In the case of `CCc1cc(-c2ccnn2C)c2nc(N3CCC(NCC4CC(F)(F)C4)CC3)c(-c3ccn(C)n3)c(C)c2c1` [Compound 91], the IC50 in test [1] lay within 10 to 100 nM; in test [2], 1 to 10 nM. In addition, the “Selectivity (MOR/KOR)” value in test [2] was “++ (between 10- and 100-fold selectivity)”.

`CCc1cc(F)c2nc(N3CC[C@H](N[C@@H]4CCOC4)[C@@H](C)C3)c(-c3ccn(C)n3)c(C)c2c1` [Compound 108]: the IC50 in test [1] lay in the range of 100 to 1000 nM. In test [2], the “Selectivity (MOR/KOR)” value was “+++ (between 100- to 1000-fold selective)” and the concentration for half-maximal inhibition (IC50) lay in the range of 1 to 10 nM.

Take `CCc1cc(F)c2nc(N3CCN(C[C@@H]4CCCO4)C[C@H]3C)c(-c3nc(C)no3)c(C)c2c1` [Compound 29]: the half-maximal inhibitory concentration (IC50) in test [1] was over 1000 nM. For the same compound, in test [2], the “Selectivity (MOR/KOR)” value is “+++ (between 100- to 1000-fold selective)” and the IC50 is 1 to 10 nM.

In turn, `CCc1cc(F)c2nc(N3CCN(C(=O)[C@H](CO)N(C)C)C[C@H]3C)c(-c3nc(C)no3)c(C)c2c1` [Compound 162] yielded a half-maximal inhibitory concentration (IC50) in test [1] of over 1000 nM. For the same compound, in test [2], the “Selectivity (MOR/KOR)” value is “+++ (between 100- to 1000-fold selective)” and the IC50 lay in the range of 1 to 10 nM.

Turning to `CCc1cc(F)c2nc(N3CC[C@@H](N[C@@H]4CCCOC4)[C@@H](C)C3)c(-c3ccn(C)n3)c(C)c2c1` [Compound 113], in test [1], the half-maximal inhibitory concentration (IC50) was over 1000 nM. For the same compound, in test [2], the “Selectivity (MOR/KOR)” value is listed as “++++ (more than 1000-fold selectivity over MOR)” and the IC50 was under 1 nM.

Consider `CCc1cc(F)c2nc(N3CCN(C(C)C4CCOCC4)C[C@H]3C)c(-c3nc(C)no3)c(C)c2c1` (stereo partly drawn) [Compound 199, 5-(6-ethyl-8-fluoro-4-methyl-2-((2R)-2-methyl-4-(1-(tetrahydro-2H-pyran-4-yl)ethyl)piperazin-1-yl)quinolin-3-yl)-3-methyl-1,2,4-oxadiazole], for which the values for the half-maximal inhibitory concentration (IC50) in test [1] and in test [2] were over 1000 nM and 10 to 100 nM, respectively. In addition, the “Selectivity (MOR/KOR)” value in test [2] is recorded as “++++ (more than 1000-fold selectivity over MOR)”.

As to `CCc1cc(-c2ccnn2C)c2nc(N3CC[C@@H](NC4CCOCC4)[C@@H](F)C3)c(-c3ccn(C)n3)c(C)c2c1` [Compound 15, (3S,4R)-1-(6-ethyl-4-methyl-3-(1-methyl-1H-pyrazol-3-yl)-8-(1-methyl-1H-pyrazol-5-yl)quinolin-2-yl)-3-fluoro-N-(tetrahydro-2H-pyran-4-yl)piperidin-4-amine], the IC50 in test [1] was 10 to 100 nM. Besides, in test [2], the “Selectivity (MOR/KOR)” value was “++ (between 10- and 100-fold selectivity)”; the 50% inhibitory concentration (IC50) lay within 1 to 10 nM.

Source of the values: US20260115185A1, “QUINOLINE DERIVATIVES WHICH ACT AS KAPPA-OPIOID RECEPTOR ANTAGONISTS” (The Scripps Research Institute, priority 2023, published 2026).
